Source: patent publication US20240018110A1, “RADIOLABELED COMPOUNDS TARGETING THE PROSTATE-SPECIFIC MEMBRANE ANTIGEN” (THE UNIVERSITY OF BRITISH COLUMBIA, priority 2020, published 2024)

Target: PSMA (Homo sapiens, UniProt Q04609)
Assay: In vitro competitive binding assay

PSMA, sequence (Q04609 whole entry): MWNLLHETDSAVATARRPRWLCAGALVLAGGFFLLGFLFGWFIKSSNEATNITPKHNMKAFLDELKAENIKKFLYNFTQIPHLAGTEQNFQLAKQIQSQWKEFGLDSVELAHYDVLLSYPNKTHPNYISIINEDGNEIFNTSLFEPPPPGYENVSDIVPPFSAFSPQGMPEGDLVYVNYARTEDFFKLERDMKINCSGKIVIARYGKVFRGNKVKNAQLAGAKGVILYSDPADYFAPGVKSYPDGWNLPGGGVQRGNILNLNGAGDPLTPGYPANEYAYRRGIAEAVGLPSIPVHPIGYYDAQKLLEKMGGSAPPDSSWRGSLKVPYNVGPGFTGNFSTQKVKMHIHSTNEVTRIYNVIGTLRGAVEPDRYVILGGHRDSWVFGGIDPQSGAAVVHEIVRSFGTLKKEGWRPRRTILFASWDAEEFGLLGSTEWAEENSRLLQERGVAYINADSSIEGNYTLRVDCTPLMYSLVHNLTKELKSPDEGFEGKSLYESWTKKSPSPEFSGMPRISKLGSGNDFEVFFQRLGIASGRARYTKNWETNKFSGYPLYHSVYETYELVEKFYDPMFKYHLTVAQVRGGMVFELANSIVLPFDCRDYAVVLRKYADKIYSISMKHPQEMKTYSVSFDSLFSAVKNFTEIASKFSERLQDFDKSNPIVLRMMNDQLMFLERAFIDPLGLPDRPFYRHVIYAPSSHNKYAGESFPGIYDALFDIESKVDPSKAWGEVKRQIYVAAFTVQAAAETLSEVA

Row | Structure (SMILES) | Ki [nM]
1 | O=C(O)CC[C@H](NC(=O)N[C@@H](C[C@H]1C[C@@H]1CNC(=O)[C@H](Cc1c2ccccc2cc2ccccc12)NC(=O)[C@H]1CC[C@H](CNC(=O)CN2CCN(CC(=O)O)CCN(CC(=O)O)CCN(CC(=O)O)CC2)CC1)C(=O)O)C(=O)O [PD-6-49] | 11.9
2 | O=C(O)CCC[C@H](OC(=O)N[C@@H](CCCCNC(=O)[C@H](Cc1c2ccccc2cc2ccccc12)NC(=O)[C@H]1CC[C@H](CNC(=O)CCc2ccc(O)c(CN(CCN(CC(=O)O)Cc3cc(CCC(=O)O)ccc3O)CC(=O)O)c2)CC1)C(=O)O)C(=O)O [AR-2-113-1, HBED-CC-PSMA-Aad-carbamate] | 3.44
3 | O=C(O)CC[C@H](NC(=O)N[C@@H](C[C@@H]1C[C@H]1CNC(=O)[C@H](Cc1c2ccccc2cc2ccccc12)NC(=O)[C@H]1CC[C@H](CNC(=O)CN2CCN(CC(=O)O)CCN(CC(=O)O)CCN(CC(=O)O)CC2)CC1)C(=O)O)C(=O)O [ADZ-4-101] | 2.42
4 | O=C(O)CCC[C@H](NC(=O)N[C@@H](CSC[C@H](NC(=O)[C@H](Cc1c2ccccc2cc2ccccc12)NC(=O)C1CCC(CNC(=O)CN2CCN(CC(=O)O)CCN(CC(=O)O)CCN(CC(=O)O)CC2)CC1)C(=O)O)C(=O)O)C(=O)O (some centres unmarked) [CCZ02032] | 3.2
5 | O=C(O)CCC[C@@H](OC(=O)N[C@@H](CCCCNC(=O)[C@H](Cc1c2ccccc2cc2ccccc12)NC(=O)[C@H]1CC[C@H](CNC(=O)CN2CCN(CC(=O)O)CCN(CC(=O)O)CCN(CC(=O)O)CC2)CC1)C(=O)O)C(=O)O [AR-2-050-2, DOTA-PSMA-Aad-carbamate] | 240
6 | O=C(O)CCC[C@H](OC(=O)N[C@@H](CCCCNC(=O)[C@H](Cc1c2ccccc2cc2ccccc12)NC(=O)[C@H]1CC[C@H](CNC(=O)CN2CCN(CC(=O)O)CCN(CC(=O)O)CCN(CC(=O)O)CC2)CC1)C(=O)O)C(=O)O [AR-2-050-1, DOTA-PSMA-Aad-carbamate] | 8.99
7 | O=C(O)CCC[C@H](NC(=O)N[C@@H](COCCNC(=O)[C@H](Cc1c2ccccc2cc2ccccc12)NC(=O)C1CCC(CNC(=O)CN2CCN(CC(=O)O)CCN(CC(=O)O)CCN(CC(=O)O)CC2)CC1)C(=O)O)C(=O)O (some centres unmarked) [CCZ02011] | 1.23
8 | O=C(O)CCC[C@H](NC(=O)N[C@@H](CSC[C@@H](NC(=O)[C@H](Cc1c2ccccc2cc2ccccc12)NC(=O)C1CCC(CNC(=O)CN2CCN(CC(=O)O)CCN(CC(=O)O)CCN(CC(=O)O)CC2)CC1)C(=O)O)C(=O)O)C(=O)O (some centres unmarked) [CCZ02033] | 461
